Results published in paper PMC12876990, “Targeting secreted PLA2 interactions with EGFR and vimentin to arrest prostate tumour growth” (Cell Death & Disease, 2025).
One block for each compound: values may come before it. Peptide text beside a SMILES is read from it.

How the values were obtained:
[1] = target: T1, hGIIA/vimentin interaction (Homo sapiens, UniProt P08670); experiment: Enzyme immunoassay of hGIIA binding to vimentin coil 2; settings: 0.1-100 µM
T1 construct: Purified vimentin fragments (full length or coil 2) were seeded to a 96-well microplate at 15 μg/mL; hGIIA purified in house from conditioned medium of CHO cell line 2B1
T1 sequence (P08670 269-407 limits assumed): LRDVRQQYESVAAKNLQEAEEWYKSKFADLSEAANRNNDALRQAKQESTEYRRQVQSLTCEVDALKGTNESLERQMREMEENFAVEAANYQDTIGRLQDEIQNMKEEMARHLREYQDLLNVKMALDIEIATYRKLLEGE
Procedure: Prior to assay, hGIIA antibody 4A1 was conjugated to alkaline phosphatase (4A1-AP), produced using the lightning-link conjugation kit (ab102850, Abcam) as per the manufacturer’s instructions.
Purified vimentin fragments (full length or coil 2) were seeded to a 96-well microplate at 15 μg/mL with a 100 μL/well volume. After an overnight incubation at 4 °C, the plate was emptied. Each well was then blocked overnight at 4 °C with 200 μL of 1% BSA in PBS. The plate was emptied and washed with PBST (PBS + 0.05% Tween20). hGIIA solution of 100 ng/mL in PBS with 0.1% BSA was prepared with and without inhibitors c2, Withaferin A and LY311727 in DMSO with concentrations 0.1-100 µM. hGIIA working solution with 0.4% DMSO served as a positive control and PBS with 0.1% BSA served as a negative control. A 100 μL volume of each prepared hGIIA-inhibitor mixture was added to wells in triplicate and incubated at 37 °C for two hours. The plate was washed twice with PBST, then incubated with the 4A1-AP conjugate at 1 μg/mL 0.1% BSA in PBS and incubated for one hour at 37 °C. Plates were then emptied and washed three times with PBST, followed by washing twice with carbonate buffer (8 mM Na2CO3, 36 mM NaHCO3, 2 mM MgCl2, pH 9.8), before incubation with AP substrate p-nitro-phenyl phosphate (PNPP) powder at 1 mg/mL concentration in carbonate buffer. The plate was incubated at 37 °C for 60 mins then absorbance was read at 405 nm by a Spectramax M2 plate reader. All washes were a 200 µL/well volume.

[2] = system: LNCaP-luc xenograft tumours; experiment: Androgen-sensitive xenograft model; type: in vivo, BALB/c nu/nu mice; settings: cF 2 mg/kg po daily
Procedure: BALB/c nu/nu mice (which express murine hGIIA) (n = 13 per group) were injected subcutaneously with 1 × 10^6 luciferase-tagged LNCaP cells (LNCaP-luc) in RPMI 5% FBS/Matrigel (1:1). Subcutaneous tumours (> 65.5 mm^3), in mice randomised to […], were treated by gavage with either vehicle (saline, 1% dimethylformamide (DMF), po, daily) cF (2 mg/kg po, daily) or c2 (0.1 mg/kg, thrice weekly). Mouse weight and tumour diameter, ((d1) and at 90 degrees to d1 (d2) measured with calipers) were recorded twice weekly. Diameter measurements were used to calculate tumour volume; Vol. = π/6 (d1.d2)^3/2, with treatments blinded to experimentalists. Animals were treated for 8-10 weeks unless culled due to tumour volume reaching 15 x 15 mm (1768 mm^3). End of study plasma PSA levels were measured by ELISA. Bioluminescence images were obtained weekly using the IVIS® Lumina (Perkin-Elmer). D-Luciferin, Firefly, potassium salt (150 mg/kg), (Gold Biotechnology Inc.) substrate was administered intraperitoneally prior to imaging. Images were acquired after 10 min with an image time of 60 s, medium binning, F/Stop=1. Images were quantified using the Living Image software (Perkin-Elmer).
(§1) Tumours were fixed with 10% neutral buffered formalin and stored in 70% ethanol, then paraffin-embedded and cut into 5 µm consecutive sections. Samples were deparaffinised with xylene and […] with ethanol using standard protocols, with antigens retrieved by incubating samples in citrate buffer (pH 6) at 95 °C for 20 min. Samples were then incubated with 3% H2O2 in methanol for 30 min to remove endogenous peroxidases, then blocked with 10% goat serum in PBS for 30 min. Samples were then incubated overnight at 4 °C with a range of antibodies: Ki67 (Abcam, ab15580, 1:100), vimentin (1:333), CD31 (Abcam, ab28364, 1:50) and hGIIA (1:100) (Cayman Chemical, Ann Arbour, MI). TUNEL assay (Abcam) was also used to identify apoptosis. Samples were then washed, stained with Rabbit IHC secondary antibody (1:100) (Dako, Glostrup, Denmark) and counterstained with Gill's haematoxylin (1:5) (Dako). Samples were imaged using an M8 digital microscope (PreciPoint GmbH, Freising, Germany) and DAB staining was scored in a blind manner using ImageJ as described previously.

[3] = Toxicity and serum enzyme levels in PCa xenograft model mice; type: in vivo
Procedure: Fig. 1 Derived from the structure of hGIIA, cF and c2 are orally absorbed, cell permeable and non-toxic. a Structure of hGIIA showing disulphide bonds (yellow) and the location of the peptide sequence ^70FLSYK^74 (cyan), which was cyclised to produce pentapeptide cF, then modified to produce c2. b Plasma concentrations of tritiated cF (red) and c2 (blue) following subcutaneous (sc) administration (circles) or oral (po) administration (squares) at 5 mg/kg to BALB/c mice (mean ± SE, n = 4 per time point). Tissue concentrations of c cF and d c2 following sc administration determined in the liver (blue) and kidney (brown) (mean ± SE). Dashed lines indicate estimated background levels of tritium in tissues due to tissue blood content (10% of peak plasma concentration). e–i Following po administration of c2 at 100 mg/kg to male rats (n = 5 per group), levels of c2 were measured in e plasma, f kidney, g faeces, h urine and i liver at timepoints indicated via LCMS/MS (mean ± SE). j Serum enzyme levels of markers of kidney function (creatinine), liver damage (AST and ALT) and heart damage (CK) in PCa xenograft model mice in response to treatment with vehicle (po, 3 x weekly for 6.1 ± 1.6 weeks), cF (10 mg/kg, po, 3 x weekly for 5.4 ± 0.9 weeks) or c2 (10 mg/kg, po, 3 x weekly for 4.8 ± 0.8 weeks) (n = 4, mean ± SE). Data were obtained by the South Eastern Area Laboratory Services Pathology Laboratory at Prince of Wales Hospital, Randwick, Australia. k PCa cell lines LNCaP, PC-3, and DU145 cells incubated with 100 µM c2 (green) for 24 hours with DAPI (blue), scale bar 10 µm (representative cells of n = 3 biological replicates, 5 cells per replicate).
A key failing of previous enzymatic inhibitors of hGIIA was toxicity, resulting in increased incidence of myocardial infarction in a phase III clinical trial. Thus, the toxicity profile of novel hGIIA inhibitors is critically important in evaluating new inhibitors. […] Extensive histopathology was performed on all animals in the control and high dose groups sacrificed on day 29, with no difference observed between the treated groups and the vehicle control group by any measure. […] In light of the toxicity associated with the myocardial infarction study, data from this c2 toxicity study relevant to heart toxicity are shown in Table 1. Heart wet weight was not affected by either low or high dose relative to vehicle, indicating the compound has no significant pro-hypertrophy effect at these doses. The lack of effect of c2 on gross necropsy or histopathology scores also supports the preclinical safety of the compound in the heart. Importantly, c2 has no effect on serum potassium levels or the Na/K ratio, since hypokalemia (low potassium) is highly arrythmogenic. […] It is of interest also that serum alanine transaminase is unaffected by c2 at the doses tested, since this marker was raised three-fold over the normal range in 6.3-fold more patients on varespladib than placebo in the VISTA acute coronary syndrome trial of this sPLA2 inhibitor [13].

[4] = system: PC-3M-luc xenograft tumours; experiment: Androgen-receptor independent xenograft model; type: in vivo, BALB/c nu/nu mice
Procedure: Mice (BALB/c nu/nu) carrying luciferase-tagged PC-3M cells (PC-3M-luc) were each injected sc with 1 × 10^6 cells suspended in RPMI culture medium. […] Tumour volume and animal weights were measured twice weekly.
as §1

[5] = system: fibroblast-like synoviocytes derived from patients with rheumatoid arthritis; settings: cited from earlier work
[6] = system: hGIIA; settings: cited from earlier work
[7] = Pharmacokinetics of tritiated cF and c2 in BALB/c mice; type: in vivo
Procedure: All animal studies were performed according to the guidelines for the ethical use of animals published by the National Health and Medical Research Council of Australia. Mouse pharmacokinetic studies were conducted with approval from the Garvan Institute Animal Ethics Committee (approval #02/21). cF and c2 were radioactively labelled with tritium by catalytic saturation of peptide analogues containing dehydroleucine (Sibtech Inc.), yielding high specific activity (50–60 Ci/mmol) peptides. Their identity was confirmed by three separate analytical methods prior to delivery. Mice (BALB/c, n = 4 per timepoint) were administered a single dose of peptide by the routes and times indicated. Animals were then exsanguinated by cardiac puncture under halothane anaesthesia followed by cervical dislocation. Tissues and plasma were stored at −80 °C prior to analysis. For plasma, a known volume of plasma was added to liquid scintillant (Ultima Gold, Perkin Elmer). For tissues, a known amount of tissue (50–100 mg) was incubated in NaOH (1 mL, 1 M) overnight at room temperature. The solutions were then bleached with disodium EDTA (100 µl, 0.1%) and hydrogen peroxide (300 µl, 30%) and incubated at 50 °C for one hour. The peptide content of plasma and tissues was determined by liquid scintillation counting. The stability of the peptides following administration to animals was evaluated by thin-layer chromatography of tissue-extracted peptide relative to peptide prior to injection (Fig. S2c).

[8] = system: LNCaP-luc xenograft tumours in castrated mice; experiment: Castrate-resistant model of PCa; type: in vivo, BALB/c nu/nu mice; settings: cF 2 mg/kg po daily; p = 0.0419
From the text: Mice (BALB/c nu/nu) carrying LNCaP-luc xenograft tumours ( > 65.5 mm^3) were surgically castrated 2.0 - 6.6 weeks post-tumour establishment. Treatment was commenced five weeks post-castration and the study terminated 10 weeks post-treatment commencement.

[9] = system: castrate-resistant PCa; design: method as in PMID 15470213; settings: cited from earlier work
[10] = cited from earlier work

inhibition of the hGIIA/vimentin interaction [1]: did not inhibit
SMILES: CCc1c(CC(N)=O)c2cc(OCCCP(=O)(O)O)ccc2n1Cc1ccccc1 [LY311727]

SMILES: CC(C)C[C@@H]1NC(=O)[C@H](Cc2ccccc2)NC(=O)[C@H](CCCNC(=N)N)NC(=O)[C@H](Cc2ccc(O)cc2)NC(=O)[C@H](CO)NC1=O [cF, cyclo-(Phe-Leu Ser-Tyr-Arg)] (cyclo(FLSYR))
tumour volume ([2]; ten weeks, p = 0.0229): significant suppression
PSA levels ([2]; p = 0.0158): significantly reduced
tumour weight ([2]; p = 0.0235): significant suppression
luciferase signal ([2]; p = 0.0284): reduced
serum creatinine, aspartate aminotransferase, alanine aminotransferase, creatine kinase levels ([3]; 10 mg/kg po thrice weekly): no significant changes
damage to organs ([3]; 10 mg/kg thrice weekly for 10 weeks): no observable damage to organs
gross toxicity ([3]; max dosages of 10 mg/kg thrice weekly for 10 weeks): No gross toxicity
increase of TUNEL signal ([4]; cF): not seen
proliferative marker Ki67 relative to control ([4]; cF): significant increase
growth of tumours relative to vehicle controls ([4]; cF 5 mg/kg daily po, p < 0.05): significantly slowed the growth of tumours
animals surviving until study termination at 6 months ([4]; cF daily): 13%
synthesis of exogenous hGIIA-mediated prostaglandin (PG) [5]: suppress
potency in the inhibition of hGIIA catalytic activity, less than other hGIIA inhibitors [6]: ~ 1000 fold
liver and kidney concentrations relative to c2 ([7]; 5 mg/kg): ~ 10 fold
plasma concentration relative to c2 ([7]; 5 mg/kg, sc or po): ~ 10 fold
oral bioavailability (in words) ([7]; sc and po administration): orally bioavailable
oral bioavailability relative to sc delivery (AUC analysis) ([7]; tritiated peptide 5 mg/kg, po vs sc, at 16 hours): ~20%
relative tumour volume from time 0 at 10 weeks [8]: significantly reduced

SMILES: CC(=O)O[C@@]12CO[C@@H]1C[C@H](O)[C@@]1(C)C(=O)[C@H](O)C3=C(C)[C@@H](OC(=O)[C@H](O)[C@@H](NC(=O)OC(C)(C)C)c4ccccc4)C[C@@](O)([C@@H](OC(=O)c4ccccc4)[C@H]21)C3(C)C [docetaxel]
tumour response [9]: 12%

SMILES: CCc1c(C(=O)C(N)=O)c2c(OCC(=O)O)cccc2n1Cc1ccccc1 [varespladib]
patients with ALT raised three-fold over the normal range, varespladib vs placebo [10]: 6.3 fold

inhibition of the hGIIA/vimentin interaction [1]: did not inhibit
SMILES: CC1=C(CO)C(=O)O[C@@H]([C@@H](C)[C@H]2CC[C@H]3[C@@H]4C[C@H]5O[C@]56[C@@H](O)C=CC(=O)[C@]6(C)[C@H]4CC[C@]23C)C1 [withaferin A]
